Experimental data published in US11534457B2, “Use of dextran sulfate” (priority 2017, dated 2022).
Marks after values point to notes of the source that are not given here.

Test system: severe traumatic brain injury (sTBI)
Assay: sTBI in rats, HPLC of purine-pyrimidine / energy metabolites in brain (Example 3)
Type: in vivo, Male Wistar rats
Details: sacrifice 7 days
Procedure: The experimental protocol used in this study was approved by the Ethical Committee of the Catholic University of Rome, according to international standards and guidelines for animal care. Male Wistar rats of 300-350 g body weight (b.w.) were fed with standard laboratory diet and water ad libitum in a controlled environment.
1) n=6 animals subjected to sTBI, with drug administration after 30 minutes and sacrifice at 2 days post-TBI (Acute phase 1)
2) n=6 animals subjected to severe-TBI, with drug administration after 30 minutes and sacrifice at 7 days post-TBI (Acute phase 2).
3) n=6 animals subjected to severe-TBI, with drug administration after 3 days and sacrifice at 7 days post-TBI (Chronic phase).
As the anesthetic mixture, animals received 35 mg/kg b.w. ketamine and 0.25 mg/kg b.w. midazolam by i.p. injection. sTBI was induced by dropping a 450 g weight from 2 m height on to the rat head that had been protected by a metal disk previously fixed on the skull, according to the “weight drop” impact acceleration model (Marmarou et al., A new model of diffuse brain injury in rats. Part I: Pathophysiology and biomechanics. J Neurosurg. 1994; 80: 291-300). […] At the end of each period of treatment, rats were anesthetized again and then immediately sacrificed.
The drug treatment was a subcutaneous injection of 0.5 ml of LMW-DS (15 mg/kg) and administered according to the aforementioned schematic protocol.
An in vivo craniectomy was performed in all animals during anesthesia, after carefully removing the rat's skull, the brain was exposed and removed with a surgical spatula and quickly dropped in liquid nitrogen. After the wet weight (w.w.) determination, tissue preparation was affected as previously disclosed (Tavazzi et al., Cerebral oxidative stress and depression of energy metabolism correlate with severity of diffuse brain injury in rats. Neurosurgery. 2005; 56: 582-589; Vagnozzi et al., Temporal window of metabolic brain vulnerability to concussions: mitochondrial-related impairment-part I. Neurosurgery. 2007; 61: 379-388; Tavazzi et al., Temporal window of metabolic brain vulnerability to concussions: oxidative and nitrosative stresses-part II. Neurosurgery. 2007; 61: 390-395; Amorini et al., Severity of experimental traumatic brain injury modulates changes in concentrations of cerebral free amino acids. J Cell Mol Med. 2017; 21: 530-542.). Briefly, whole brain homogenization was performed with 7 ml of ice-cold, nitrogen-saturated, precipitating solution composed by CH3CN+10 mM KH2PO4, pH 7.40, (3:1; v:v), and using an Ultra-Turrax set at 24,000 rpm/min (Janke & Kunkel, Staufen, Germany). After centrifugation at 20,690×g, for 10 min at 4° C., the clear supernatants were saved, pellets were supplemented with 3 ml of the precipitating solution and homogenized again as described above. A second centrifugation was performed (20,690×g, for 10 min at 4° C.), pellets were saved, supernatants combined with those previously obtained, extracted by vigorous agitation with a double volume of HPLC-grade CHCl3 and centrifuged as above. The upper aqueous phases containing water-soluble low-molecular weight compounds were collected, subjected to chloroform washings for two more times (this procedure allowed the removal of all the organic solvent and of any lipid soluble compound from the buffered tissue extracts), adjusted in volumes with 10 mM KH2PO4, pH 7.40, to have ultimately aqueous 10% tissue homogenates and saved at −80° C. until assayed. […]

[1] = Acute phase 2: 15 mg/kg s.c. 30 min post-sTBI
[2] = Chronic phase: 15 mg/kg s.c. 3 days post-sTBI

Substance: low molecular weight dextran sulfate [LMW-DS]
- NO2, cerebral concentration [1]: 226.40 ± 30.95^b nmol/g (w.w.)
- NO3, cerebral concentration [1]: 198.56 ± 25.93^e,i nmol/g (w.w.)
- UDP, cerebral concentration [1]: 40.38 ± 8.50^a,i nmol/g (w.w.)
- UDP-Gal, cerebral concentration [1]: 145.14 ± 27.76 nmol/g (w.w.)
- UDP-GalNac, cerebral concentration [1]: 19.90 ± 3.12^a,e nmol/g (w.w.)
- UDP-Glc, cerebral concentration [1]: 44.44 ± 7.59^i nmol/g (w.w.)
- UDP-GlcNac, cerebral concentration [1]: 130.65 ± 28.41^a nmol/g (w.w.)
- UMP, cerebral concentration [1]: 138.73 ± 32.01^b nmol/g (w.w.)
- UTP, cerebral concentration [1]: 146.71 ± 32.68^e nmol/g (w.w.)
- acetyl-CoA, cerebral concentration [1]: 36.86 ± 4.11^e nmol/g (w.w.)
- adenine, cerebral concentration [1]: 58.16 ± 6.36^a,f nmol/g (w.w.)
- ascorbic acid, cerebral concentration [1]: 3512.58 ± 224.62^a,e nmol/g (w.w.)
- creatinine, cerebral concentration [1]: 37.27 ± 5.82^a,e,j nmol/g (w.w.)
- cytidine, cerebral concentration [1]: 16.18 ± 4.21^e nmol/g (w.w.)
- cytosine, cerebral concentration [1]: 15.70 ± 4.10^f nmol/g (w.w.)
- guanine, cerebral concentration [1]: 4.73 ± 1.07 nmol/g (w.w.)
- guanosine, cerebral concentration [1]: 17.90 ± 3.24^j nmol/g (w.w.)
- hypoxanthine, cerebral concentration [1]: 12.90 ± 2.58^a,j nmol/g (w.w.)
- inosine, cerebral concentration [1]: 85.52 ± 20.36^e nmol/g (w.w.)
- malonyl-CoA, cerebral concentration [1]: 11.29 ± 2.27^b nmol/g (w.w.)
- orotic acid, cerebral concentration [1]: 13.34 ± 3.65^a nmol/g (w.w.)
- thymidine, cerebral concentration [1]: 0.49 ± 0.20^f nmol/g (w.w.)
- uracil, cerebral concentration [1]: 19.40 ± 7.52^a,e nmol/g (w.w.)
- uric acid, cerebral concentration [1]: 19.17 ± 2.15^a,h,i nmol/g (w.w.)
- uridine, cerebral concentration [1]: 63.02 ± 9.66^b,e nmol/g (w.w.)
- xanthine, cerebral concentration [1]: 10.41 ± 2.11^f nmol/g (w.w.)
- β-pseudouridine, cerebral concentration [1]: 13.26 ± 3.16^a,e,j nmol/g (w.w.)
- ADO, cerebral concentration [2]: 89.97 ± 12.98^a nmol/g (w.w.)
- ADP, cerebral concentration [2]: 315.53 ± 46.53^a nmol/g (w.w.)
- ADP-ribose, cerebral concentration [2]: 173.94 ± 8.45^a nmol/g (w.w.)
- AMP, cerebral concentration [2]: 90.01 ± 21.24^a nmol/g (w.w.)
- ATP, cerebral concentration [2]: 1381.03 ± 212.64^a nmol/g (w.w.)
- CDP choline, cerebral concentration [2]: 8.37 ± 2.19 nmol/g (w.w.)
- CDP, cerebral concentration [2]: 23.55 ± 6.45^a nmol/g (w.w.)
- CMP, cerebral concentration [2]: 20.51 ± 3.73^a,f nmol/g (w.w.)
- CTP, cerebral concentration [2]: 25.23 ± 2.93^a,f nmol/g (w.w.)
- CoA-SH, cerebral concentration [2]: 27.58 ± 6.24^f nmol/g (w.w.)
- GDP glucose, cerebral concentration [2]: 43.85 ± 5.06^b nmol/g (w.w.)
- GDP, cerebral concentration [2]: 173.05 ± 28.68^a,e nmol/g (w.w.)
- GMP, cerebral concentration [2]: 148.56 ± 31.21^a nmol/g (w.w.)
- GSH, cerebral concentration [2]: 2608.67 ± 358.07^a,e nmol/g (w.w.)
- GSSG, cerebral concentration [2]: 231.08 ± 44.34^b,f nmol/g (w.w.)
- GTP, cerebral concentration [2]: 290.92 ± 34.68^a,f nmol/g (w.w.)
- IMP, cerebral concentration [2]: 99.29 ± 13.82^a nmol/g (w.w.)
- MDA, cerebral concentration [2]: 11.62 ± 3.90^a,e nmol/g (w.w.)
- NADH, cerebral concentration [2]: 11.78 ± 3.32^e nmol/g (w.w.)
- NADPH, cerebral concentration [2]: 7.34 ± 2.65^f nmol/g (w.w.)
- NADP^+, cerebral concentration [2]: 16.44 ± 2.66^a,f nmol/g (w.w.)
- NAD^+, cerebral concentration [2]: 301.13 ± 29.90^a nmol/g (w.w.)
- NM, cerebral concentration [2]: 6375.36 ± 974.12^a,e nmol/g (w.w.)
- NO2, cerebral concentration [2]: 217.67 ± 55.04^a nmol/g (w.w.)
- NO3, cerebral concentration [2]: 241.27 ± 18.84^e nmol/g (w.w.)
- UDP, cerebral concentration [2]: 57.40 ± 5.88^a,f nmol/g (w.w.)
- UDP-Gal, cerebral concentration [2]: 122.29 ± 12.15 nmol/g (w.w.)
- UDP-GalNac, cerebral concentration [2]: 21.84 ± 2.80^a,e nmol/g (w.w.)
- UDP-Glc, cerebral concentration [2]: 35.79 ± 3.45^b nmol/g (w.w.)
- UDP-GlcNac, cerebral concentration [2]: 129.42 ± 15.88^b nmol/g (w.w.)
- UMP, cerebral concentration [2]: 103.11 ± 29.79 nmol/g (w.w.)
- UTP, cerebral concentration [2]: 136.80 ± 33.25^f nmol/g (w.w.)
- acetyl-CoA, cerebral concentration [2]: 35.68 ± 6.55^e nmol/g (w.w.)
- adenine, cerebral concentration [2]: 52.94 ± 8.59^a,f nmol/g (w.w.)
- ascorbic acid, cerebral concentration [2]: 3375.03 ± 856.41^a,e nmol/g (w.w.)
- creatinine, cerebral concentration [2]: 51.25 ± 10.17^a,f nmol/g (w.w.)
- cytidine, cerebral concentration [2]: 14.71 ± 2.83^e nmol/g (w.w.)
- cytosine, cerebral concentration [2]: 15.58 ± 2.50^b,f nmol/g (w.w.)
- guanine, cerebral concentration [2]: 5.31 ± 1.04^b nmol/g (w.w.)
- guanosine, cerebral concentration [2]: 28.87 ± 7.60^a,f nmol/g (w.w.)
- hypoxanthine, cerebral concentration [2]: 17.97 ± 4.49^a nmol/g (w.w.)
- inosine, cerebral concentration [2]: 105.81 ± 25.57^f nmol/g (w.w.)
- malonyl-CoA, cerebral concentration [2]: 10.00 ± 1.95^b nmol/g (w.w.)
- orotic acid, cerebral concentration [2]: 12.05 ± 1.50^a nmol/g (w.w.)
- thymidine, cerebral concentration [2]: 0.71 ± 0.11 nmol/g (w.w.)
- uracil, cerebral concentration [2]: 16.57 ± 2.99^a,f nmol/g (w.w.)
- uric acid, cerebral concentration [2]: 27.77 ± 3.60^a nmol/g (w.w.)
- uridine, cerebral concentration [2]: 63.28 ± 3.37^f nmol/g (w.w.)
- xanthine, cerebral concentration [2]: 9.35 ± 0.83^f nmol/g (w.w.)
- β-pseudouridine, cerebral concentration [2]: 18.62 ± 2.80^a nmol/g (w.w.)
